Laboratory results from patent publication US20130053430A1, “MODULATION OF CETP EXPRESSION” (Isis Pharmaceuticals, Inc., priority 2010, published 2013).
e = 2'-O-(2-methoxyethyl) (MOE); d = 2'-deoxy (DNA)

Tests used:
Assay type in all cases: in vivo, mice
[1] = Plasma cholesterol and triglyceride levels in huApoB/huCETP/mLDLr mouse model (Example 7); conditions: huApoB+/−huCETP+/−mLDLr+/− mice (Groups B-E), ASO 25 mg/kg s.c. twice/week
From the text: The huApoB^+/−huCETP^+/−mLDLr^+/− mice were divided into five groups of 5-7 mice each. […] The saline-injected group served as the control group to which oligonucleotide-treated groups were compared. […] This group served a negative control for the effects of the antisense oligonucleotides against CETP. The groups are further described in Table 27, and are designated letters A-F, by which they will be referred from henceforth.
HDL and LDL cholesterol were individually measured by HPLC. Triglyceride levels were measured on weeks 0, 3 and 6 with the use of a commercially available triglyceride kit (DCL Triglyceride Reagent; Diagnostic Chemicals Ltd.).

[2] = system: ABCA1; test: Liver ABCA1 mRNA expression (Example 9); conditions: percentage increase or decrease compared to PBS control; s.c. 6 weeks; Dose 50 mg/kg/wk
Method: (§1) Another group received subcutaneous injections of control oligonucleotide ISIS 141923 at a dose of 50 mg/kg/week for 6 weeks. One group of mice received subcutaneous injections of PBS for 6 weeks. The PBS-injected group served as the control group to which treatment groups were compared.
Liver RNA was isolated for real-time PCR analysis of ABCA1, ApoAI, and SR-B1. ATP-binding cassette transporter ABCA1 (member 1 of human transporter sub-family ABCA), also known as the cholesterol efflux regulatory protein (CERP) is a protein which in humans is encoded by the ABCA1 gene (Luciani, M. F. et al., Genomics. 1994. 21: 150-9). This transporter is a major regulator of cellular cholesterol and phospholipid homeostasis. Apolipoprotein A-I is a protein that in humans is encoded by the APOA1 gene (Breslow, J. L. et al., Proc. Natl. Acad. Sci. USA 1982. 79: 6861-5). Apolipoprotein A-I is the major protein component of HDL in plasma. The protein promotes cholesterol efflux from tissues to the liver for excretion. Scavenger receptor class B, type I (SR-BI) is an integral membrane protein found in numerous cell types/tissues, including the liver and adrenal (Acton, S. L. et al., J. Biol. Chem. 1994. 269: 21003-21009). It is best known for its role in facilitating the uptake of cholesteryl esters from high-density lipoproteins in the liver. Therefore, all three genes have a role in HDL regulation.
The primer probe set RTS1204 (forward sequence […], designated herein as SEQ ID NO: 122, reverse sequence […], designated herein as SEQ ID NO: 123, probe sequence AGGCCCAGACCTGTAAAGGCGAAGX, with X a fluorophore, designated herein as SEQ ID NO: 124) was used to measure abca1 levels. The primer probe set RTS14737 (forward sequence […], designated herein as SEQ ID NO: 125, reverse sequence […], designated herein as SEQ ID NO: 126, probe sequence CTGCAGGAACGGCTGGGCCCX, with X a fluorophore, designated herein as SEQ ID NO: 127) was used to measure apoA1 levels. The primer probe set mSRB-1 (forward sequence […], designated herein as SEQ ID NO: 128, reverse sequence ATGCGACTTGTCAGGCTGG, designated herein as SEQ ID NO: 129, probe sequence CGTGGAGAACCGCAGCCTCCATTX, with X a fluorophore, designated herein as SEQ ID NO: 130) was used to measure sr-b1 levels. The results are presented in Table 44 as percentage increase or decrease in the respective expression levels compared to the PBS control. Both primer probe sets produced similar results. The RNA expression levels were normalized to murine Cyclophilin. Treatment with ISIS 349517 caused an increase in ApoA1 and SR-B1 levels.

[3] = Plasma cholesterol and triglyceride levels, dose response (Example 9); conditions: 50 mg/kg/wk
Method: as §1
G. and Dyer, W. J. Can. J. Biochem. Physiol. 37: 911-917, 1959) and measured with an Olympus clinical analyzer (Hitachi Olympus AU400e, Melville, N.Y.). HDL and LDL cholesterol were individually measured by HPLC. Triglyceride levels were measured with the use of a commercially available triglyceride kit (DCL Triglyceride Reagent; Diagnostic Chemicals Ltd.). The results are presented in Tables 47-51 and are expressed in mg/dL.

[4] = Plasma glucose, dose response (Example 9); conditions: 50 mg/kg/wk
Method: as §1
Plasma glucose values were determined using a Beckman Glucose Analyzer II (Beckman Coulter) by a glucose oxidase method (Lott, J. A. et al., Clin. Chem. 21: 1754-1760, 1975).

| Substance | % HDL/total cholesterol ([1]; Week 0) | HDL cholesterol levels ([1]; Week 0) | LDL cholesterol levels ([1]; Week 0) | Total cholesterol levels ([1]; Week 0) | Triglyceride levels ([1]; Week 0) | % HDL/total cholesterol ([1]; Week 3) | HDL cholesterol levels ([1]; Week 3) | LDL cholesterol levels ([1]; Week 3) | Total cholesterol levels ([1]; Week 3) | Triglyceride levels ([1]; Week 3) | % HDL/total cholesterol ([1]; Week 6) | HDL cholesterol levels ([1]; Week 6) | LDL cholesterol levels ([1]; Week 6) | Total cholesterol levels ([1]; Week 6) | Triglyceride levels ([1]; Week 6) | other results |
| --- | --- | --- | --- | --- | --- | --- | --- | --- | --- | --- | --- | --- | --- | --- | --- | --- |
| ISIS 141923: CCTTCCCTGAAGGTTCCTCC, 5-10-5 MOE gapmer, a control oligonucleotide which has no known murine target (sugars from the 5' end e5 d10 e5, backbone and methylation of C not given here) [reference compound] | 25% | 50 mg/dL | 123 mg/dL | 201 mg/dL | 137 mg/dL | 24% | 55 mg/dL | 149 mg/dL | 228 mg/dL | 177 mg/dL | 31% | 74 mg/dL | 150 mg/dL | 235 mg/dL | 192 mg/dL | Percent inhibition of liver mRNA expression, ABCA1 [2]: +16%; HDL cholesterol levels ([3]; Week 0): 87 mg/dL; LDL cholesterol levels ([3]; Week 0): 54 mg/dL; Total cholesterol levels ([3]; Week 0): 153 mg/dL; Triglyceride levels ([3]; Week 0): 49 mg/dL; % change in HDL levels compared to total cholesterol ([3]; Week 3): −17%; HDL cholesterol levels ([3]; Week 3): 115 mg/dL; LDL cholesterol levels ([3]; Week 3): 42 mg/dL; Total cholesterol levels ([3]; Week 3): 164 mg/dL; Triglyceride levels ([3]; Week 3): 58 mg/dL; % change in HDL levels compared to total cholesterol ([3]; Week 6): −23%; HDL cholesterol levels ([3]; Week 6): 124 mg/dL; LDL cholesterol levels ([3]; Week 6): 47 mg/dL; Total cholesterol levels ([3]; Week 6): 180 mg/dL; Triglyceride levels ([3]; Week 6): 88 mg/dL; Glucose levels ([4]; Week 0): 311 mg/dL; Glucose levels ([4]; Week 3): 256 mg/dL; Glucose levels ([4]; Week 6): 305 mg/dL |
| ISIS 349511: 5-10-5 MOE gapmer CCCGACCTCCTTGGAGACTT (sugars from the 5' end e5 d10 e5, backbone and methylation of C not given here) | 24% | 49 mg/dL | 129 mg/dL | 208 mg/dL | 145 mg/dL | 30% | 64 mg/dL | 126 mg/dL | 212 mg/dL | 199 mg/dL | 35% | 77 mg/dL | 132 mg/dL | 223 mg/dL | 248 mg/dL | – |
